# Source: patent US20210308103A1, “TASK-1 INHIBITORS FOR TREATMENT OF ATRIAL ARRHYTHMIAS” (Universität Heidelberg, priority 2018, published 2021)
# pIC50: −log10 of the molar value. Where two headings read alike, the source gives them in different places.
# Experiments:
# [1] = system: atrial fibrillation (AF) in humans; assay: Cardioversion of atrial fibrillation in humans; format: in vivo, human; settings: injection via peripheral venous catheter, dose adapted to body weight
# Protocol: For cardioversion of atrial fibrillation (AF) in humans, doxapram can be injected via a peripheral venous catheter. The dose will be adapted to the body weight of the patient. Cardioversion is achieved within a few minutes (<30 minutes). The ECG of the patient is continuously monitored to detect the presence of atrial fibrillation (AF) or successful cardioversion. In case of an unsuccessful cardioversion, a second dose can be applied. If AF is present after applying the second dose, a conventional electrical cardioversion can be performed. To prevent AF episodes, patients can receive repeated a maintenance doses adapted to the body weight for oral or intravenous application.
# Kv1.5 = biological target: T1, Kv1.5 (Homo sapiens, UniProt P22460); assay: Ion channel current inhibition in Xenopus laevis oocytes, Kv1.5; format: cell-based; settings: FIG. 1D
# T1 construct: expressed in transfected cells; host or cells: Xenopus laevis oocytes
# Description: (§1) FIG. 1: Inhibitory effects of doxapram and ketodoxapram on TASK-1 K-ion channels, recorded by voltage-clamp measurements in Xenopus laevis oocytes. A) Concentration-effect curve for doxapram on porcine TASK-1; B) Concentration-effect curve for doxapram on human TASK-1; C) Concentration-effect curve for ketodoxapram on human TASK-1; […] E) Inhibition of TASK-1 by doxapram, ketodoxapnram, and mixtures thereof. The ion channels TASK-1 ([…].1), Kv4.3, Kv1.5, Kv2.1, Kir3.1/4, Kv1.4 are predominantly expressed in the atrial myocardium. The ion channel TASK-3 ([…].1) is not expressed in the human myocardium but structurally related to TASK-1 (Schmidt C et al. (2015), Circulation 132(2): 82). Ion channel current inhibition was measured in Xenopus laevis oocytes (FIG. 1 D)).
# [2] = Plasma pharmacokinetics in pigs after intravenous doxapram; format: in vivo, pig; settings: for Tmax / AUC(0-inf) / Cmax / AUC / half-life: 1.8 mg/kg body weight; for Tmax / AUCextra / AUC(0-inf) / Cmax / AUC / half-life: intravenous bolus of doxapram; for AUC(0-inf) / Cmax / AUC / half-life: pig, plasma, iv; for AUC: read-out: AUC0-n
# Description: FIG. 3: Pharmacokinetics of doxapram and ketodoxapram in pigs after intravenous administration. Concentration of doxapram and ketodoxapram, respectively, as measured in plasma samples taken at the indicated time points.
# Pharmacokinetics of doxapram and ketodoxapram.
# (§2) Analysis of doxapram and ketodoxapram in tissues. Mass spectrometry, in particular liquid chromatography tandem-mass spectrometry (LC-MS/MS) with deuterated internal standard, was used to quantify the concentrations of doxapram and ketodoxapram in tissue samples and plasma.
# Doxapram was administered as an intravenous bolus to pigs and plasma concentration was determined over time.
# TASK-1 [3] = biological target: T2, TASK-1 (Homo sapiens, UniProt O14649); assay: TASK-1 current inhibition, voltage clamp in Xenopus laevis oocytes (human channel); format: cell-based; set-up: expressed in transfected cells; host or cells: Xenopus laevis oocytes; settings: for Competition between ketodoxapram and doxapram at TASK-1: both compounds present, FIG. 1E; for pIC50: voltage clamp, FIG. 1B/1C
# Description: as §1, with “thereof. Concentration-response curves for ketodoxapram and doxapram. TASK-1 current inhibition was recorded by voltage clamp measurements in Xenopus laevis oocytes according to standard protocols. […]” for “thereof.”, “D)). […] To test for competition between ketodoxapram and doxapram, concentration-response curves were determined by measuring TASK-1 current inhibition recorded by voltage clamp measurements in Xenopus laevis oocytes.” for “D)).”
# [4] = system: pigs with persistent atrial fibrillation; assay: Cardioversion of pacing-induced persistent atrial fibrillation in pigs; format: in vivo, pig
# Protocol: Doxapram and ketodoxapram were successfully applied for cardioversion in pigs. To induce atrial fibrillation in pigs, at first, pacemakers were implanted. Atrial fibrillation was induced by atrial rapid pacing. […] On average, pharmacological cardioversion to sinus rhythm was successful 3 minutes after injection of doxapram or ketodoxapram.
# porcine TASK-1 = porcine TASK-1 (Sus scrofa, UniProt A0A286ZMZ4); assay: TASK-1 current inhibition, voltage clamp in Xenopus laevis oocytes (porcine channel); format: cell-based; settings: FIG. 1A
# Description: FIG. 1: Inhibitory effects of doxapram and ketodoxapram on TASK-1 K-ion channels, recorded by voltage-clamp measurements in Xenopus laevis oocytes. A) Concentration-effect curve for doxapram on porcine TASK-1; B) Concentration-effect curve for doxapram on human TASK-1; C) Concentration-effect curve for ketodoxapram on human TASK-1; […] E) Inhibition of TASK-1 by doxapram, ketodoxapnram, and mixtures thereof. Concentration-response curves for ketodoxapram and doxapram. TASK-1 current inhibition was recorded by voltage clamp measurements in Xenopus laevis oocytes according to standard protocols.
# pigs = assay: Adverse effects observed in pigs on overdosing; format: in vivo, pig; settings: pigs 40-60 kg body weight
# Protocol: Adverse effects observed in pigs. […] These effects were not observed when an overdose of ketodoxapram was administered.
# [5] = Plasma trough concentrations in pigs during long-term administration; format: in vivo, pig; settings: repeated intravenous doses of doxapram over 18 days, FIG. 9
# Protocol: FIG. 9: Plasma trough concentrations of doxapram and its metabolite ketodoxapram in pigs during repetitive intravenous administration of doxapram over 18 days.
# FIG. 10: Plasma concentrations of ketodoxapram in pigs during long-term administration of ketodoxapram.
# Pigs were administered repeated doses of doxapram over a period of several days.
# in vivo = settings: pig
# Description: FIG. 4: Quantification of doxapram and ketodoxapram in porcine tissue samples. A) doxapram and ketodoxapram were quantified in brain tissue samples (CNS) and plasma samples of two pigs; B) Concentrations of doxapram and ketodoxapram in brain tissues of pigs treated with doxapram, which was metabolized to ketodoxapram.
# FIG. 6: Correlation between plasma concentration and brain concentration of doxapram and its metabolite ketodoxapram in pigs after intravenous administration of doxapram; pig numbers and their group status are indicated (SR: sinus rhythm; AF: atrial fibrillation).
# FIG. 7: Correlation between plasma concentration and brain concentration of ketodoxapram in pigs after intravenous administration of ketodoxapram; pig numbers and their group status are indicated (AF: atrial fibrillation).
# FIG. 8: Short-term distribution of doxapram and its metabolite ketodoxapram in pigs 30 min after administration of doxapram; pig numbers and their group status are indicated (SR: sinus rhythm).
# Quantification of ketodoxapram and doxapram in porcine tissues. In two pigs, doxapram and ketodoxapram were administered and quantified in brain tissue samples (CNS) and plasma samples (FIG. 4A).
# as §2
# Pigs with sinus rhythm or atrial fibrillation were treated with intravenous doxapram and plasma and brain samples were taken essentially simultaneously.
# In two pigs, doxapram and ketodoxapram concentrations were determined in brain and plasma 30 min after intravenous administration.
# [6] = oral administration of enteric-coated doxapram; cited from earlier work
# TASK-1 [7] = biological target: T2, TASK-1; assay: TASK-1 current inhibition, patch-clamp in human atrial cardiomyocytes; format: cell-based; set-up: human atrial cardiomyocytes isolated from heart auricles of patients with sinus rhythm; endogenous in cells; host or cells: human atrial cardiomyocytes from heart auricles of patients with sinus rhythm; settings: cardiomyocytes from heart auricles of patients with sinus rhythm, FIG. 2
# Description: FIG. 2: Effects of ketodoxapram and doxapram in human atrial cardiomyocytes recorded by voltage-clamp measurements.
# [8] = Pharmacokinetics in a horse after three intravenous doses of doxapram; format: in vivo; settings: FIG. 11
# Protocol: FIG. 11: Pharmacokinetics of doxapram and its metabolite ketodoxapram in a horse after three intravenous administrations of doxapram.
# Three intravenous doses of doxapram were administered to a horse.
# [9] = average of pigs 98, 99, 100, plasma
# [10] = average of pigs 98, 99, 100, plasma, read-out: T1/2 (converted)
# [11] = pig 98, plasma, read-out: T1/2 (converted)
# [12] = pig 99, plasma, read-out: T1/2 (converted)
# [13] = pig 100, plasma, read-out: T1/2 (converted)
# [14] = pigs, summary of Table 1, read-out: Elimination half-life
# [15] = Xenopus laevis oocytes, FIG. 1D
# [16] = intravenous 1.8 mg per kg body weight
# [17] = iv, Brain concentration as percentage of plasma concentration
# [18] = intravenous 0.5 mg per kg body weight
# T2 sequence (O14649 whole entry): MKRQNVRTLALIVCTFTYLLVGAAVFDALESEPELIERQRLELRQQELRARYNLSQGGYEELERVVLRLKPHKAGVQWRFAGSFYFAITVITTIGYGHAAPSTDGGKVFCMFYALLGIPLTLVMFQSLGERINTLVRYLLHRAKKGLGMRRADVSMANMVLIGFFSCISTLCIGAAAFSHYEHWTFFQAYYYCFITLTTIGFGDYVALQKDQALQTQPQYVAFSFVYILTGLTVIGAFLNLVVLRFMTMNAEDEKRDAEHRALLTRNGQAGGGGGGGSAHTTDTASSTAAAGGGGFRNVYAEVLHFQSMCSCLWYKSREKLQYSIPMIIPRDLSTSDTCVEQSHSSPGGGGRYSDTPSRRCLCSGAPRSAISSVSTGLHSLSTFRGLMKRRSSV
# T1 sequence (P22460 whole entry): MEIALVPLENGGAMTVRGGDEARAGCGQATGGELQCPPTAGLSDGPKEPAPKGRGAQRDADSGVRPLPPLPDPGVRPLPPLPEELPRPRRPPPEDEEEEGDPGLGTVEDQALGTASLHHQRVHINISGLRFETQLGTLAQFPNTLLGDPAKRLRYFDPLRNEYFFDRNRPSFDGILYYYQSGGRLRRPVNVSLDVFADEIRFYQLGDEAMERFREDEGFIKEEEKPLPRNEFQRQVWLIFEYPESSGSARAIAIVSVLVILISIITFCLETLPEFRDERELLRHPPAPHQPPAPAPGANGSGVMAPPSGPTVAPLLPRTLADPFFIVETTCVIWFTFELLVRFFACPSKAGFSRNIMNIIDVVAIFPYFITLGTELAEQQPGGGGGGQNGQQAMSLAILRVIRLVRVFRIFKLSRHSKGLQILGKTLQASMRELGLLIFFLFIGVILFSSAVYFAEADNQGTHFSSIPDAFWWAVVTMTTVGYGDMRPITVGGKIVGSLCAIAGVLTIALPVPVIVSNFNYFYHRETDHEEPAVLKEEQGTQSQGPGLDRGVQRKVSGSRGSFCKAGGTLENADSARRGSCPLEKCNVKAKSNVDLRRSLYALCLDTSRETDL
# Sequence of porcine TASK-1 (A0A286ZMZ4 1-401): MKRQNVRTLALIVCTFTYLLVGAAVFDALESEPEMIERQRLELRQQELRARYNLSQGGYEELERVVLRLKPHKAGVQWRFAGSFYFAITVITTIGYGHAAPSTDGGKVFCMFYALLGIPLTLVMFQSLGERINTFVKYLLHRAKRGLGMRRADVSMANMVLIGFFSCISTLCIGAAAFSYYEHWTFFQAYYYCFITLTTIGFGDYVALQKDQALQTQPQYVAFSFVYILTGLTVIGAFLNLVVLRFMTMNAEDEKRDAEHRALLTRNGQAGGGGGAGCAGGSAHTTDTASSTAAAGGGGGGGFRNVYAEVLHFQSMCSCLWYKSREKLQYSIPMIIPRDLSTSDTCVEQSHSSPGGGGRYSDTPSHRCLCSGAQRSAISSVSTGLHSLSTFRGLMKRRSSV
SMILES,Inhibition of ion channel Kv1.5 (Kv1.5),"Tmax ([2]; pig 98, plasma)","AUCextra [2, 9]","AUCextra ([2]; pig 98, plasma)","AUCextra ([2]; pig 99, plasma)","AUCextra ([2]; pig 100, plasma)","AUC(0-inf) [2, 9]","Cmax [2, 9]","AUC [2, 9]","half-life [2, 10]","AUC(0-inf) ([2]; pig 98, plasma)","Cmax ([2]; pig 98, plasma)","AUC ([2]; pig 98, plasma)","half-life [2, 11]","AUC(0-inf) ([2]; pig 99, plasma)","Cmax ([2]; pig 99, plasma)","AUC ([2]; pig 99, plasma)","half-life [2, 12]","AUC(0-inf) ([2]; pig 100, plasma)","Cmax ([2]; pig 100, plasma)",also measured
"CCN1CC(CCN2CCOCC2)C(c2ccccc2)(c2ccccc2)C1=O (stereo not drawn) [doxapram, 1-ethyl-4-(2-morpholin-4-ylethyl)-3,3-diphenyl-pyrrolidin-2-one]",not inhibited,0 h,0.80%,0.61%,1.53%,0.26%,2950 ng·h/mL,4090 ng/mL,2930 ng·h/mL,2.12 h,2200 ng·h/mL,2310 ng/mL,2180 ng·h/mL,1.92 h,3180 ng·h/mL,5060 ng/mL,3130 ng·h/mL,2.65 h,3480 ng·h/mL,4900 ng/mL,"Time to cardioversion [1]: < 30 min; Metabolism of doxapram in pigs ([2]; doxapram 1.8 mg/kg body weight, plasma samples, FIG. 3): rapidly metabolized to ketodoxapram; AUC ([2]; pig 100, plasma): 3470 ng·h/mL; half-life [2, 13]: 1.79 h; half-life [2, 14]: 2 to 3 h; Most strongly inhibited ion channel among TASK-1, TASK-3, Kv4.3, Kv1.5, Kv2.1, Kir3.1/4, Kv1.4 (TASK-1 [3]; [15]): TASK-1 was the most strongly inhibited ion channel; Competition between ketodoxapram and doxapram at TASK-1 (TASK-1 [3]): replaced at the ion channel by ketodoxapram; pIC50 (TASK-1 [3]; Xenopus laevis oocytes): 6.30; Cardioversion of persistent atrial fibrillation [4, 16]: sufficient for cardioversion in all tested animals; Time to cardioversion to sinus rhythm after injection, on average [4, 16]: 3 min; pIC50 (porcine TASK-1): 6.00; Central nervous adverse effects (pigs): clear signs of central nervous adverse effects; Course of plasma trough concentrations [5]: initial accumulation phase; Plasma concentrations of doxapram and ketodoxapram relative to each other (in vivo): similar; Accumulation in the brain relative to ketodoxapram (in vivo; iv): 60-500 times; Detection of doxapram after ketodoxapram administration (in vivo; iv): not detected; Kp (in vivo; [17]): 0.0024; Kp at 30 min (in vivo; [17]): 0.001; Concentrations of doxapram and ketodoxapram in plasma relative to each other [6]: about equal"
"CCN1CC(CCN2CCOCC2=O)C(c2ccccc2)(c2ccccc2)C1=O (stereo not drawn) [ketodoxapram, 4-(2-(1-ethyl-5-oxo-4,4-diphenyl-3-pyrrolidinyl)ethyl)-3-morpholinone]",not inhibited,1 h,6.99%,4.65%,12.36%,3.96%,308 ng·h/mL,47.9 ng/mL,282 ng·h/mL,2.81 h,157 ng·h/mL,31.8 ng/mL,149 ng·h/mL,2.59 h,504 ng·h/mL,63.5 ng/mL,442 ng·h/mL,3.48 h,265 ng·h/mL,48.3 ng/mL,"TASK-1 inhibition compared with doxapram (TASK-1 [7]): significantly stronger than inhibition by doxapram; Initial metabolite accumulation phase [8]: 4 to 5 days; Plasma concentration as percentage of parent compound doxapram [8]: about 10%; AUC ([2]; pig 100, plasma): 254 ng·h/mL; half-life [2, 13]: 2.36 h; half-life [2, 14]: 2 to 3 h; Effect on TASK-1 compared with doxapram (TASK-1 [3]; [15]): significantly stronger than the effect of doxapram; Most strongly inhibited ion channel among TASK-1, TASK-3, Kv4.3, Kv1.5, Kv2.1, Kir3.1/4, Kv1.4 (TASK-1 [3]; [15]): TASK-1 was the most strongly inhibited ion channel; Competition between ketodoxapram and doxapram at TASK-1 (TASK-1 [3]): stronger affinity to TASK-1; pIC50 (TASK-1 [3]; Xenopus laevis oocytes): 5.90; Cardioversion of persistent atrial fibrillation [4, 18]: sufficient for cardioversion in all tested animals; Time to cardioversion to sinus rhythm after injection, on average [4, 18]: 3 min; Central nervous adverse effects (pigs): not observed; Course of plasma trough concentrations [5]: initial accumulation phase; Concentration in brain tissue compared with doxapram in the same tissue (in vivo): several orders of magnitude lower; Crossing of the blood-brain barrier compared with doxapram (in vivo): much less effectively than doxapram; Plasma concentrations of doxapram and ketodoxapram relative to each other (in vivo): similar; Brain concentration as percentage of the corresponding doxapram concentration (in vivo; iv): 0.2-1.7%; Concentrations of doxapram and ketodoxapram in plasma relative to each other [6]: about equal"
